Reference: patent US9895330B2, “IDO inhibitors” (BRISTOL-MYERS SQUIBB COMPANY, priority 2013, dated 2018)

Molecular target: T1, IDO (IFNγ-treated Hela cells) (Homo sapiens, UniProt P14902)
T1 construct: endogenous in cells; host or cells: Hela cells treated with IFNγ (10 ng/ml)
Assay: IDO Kynurenine Assay with Hela Cells
Assay type: cell-based
Settings: IFNγ 10 ng/ml, 20 hours incubation, kynurenine absorbance at 490 nm, read-out: Hela Cells LLE_IDO_ABS_DR (IC50)
Protocol: IDO Kynurenine Assay with Hela Cells
Hela cells were seeded at 30,000 cells per well in 40 ul RPMI/phenol red free media contains 10% FBS in a 384-well black wall clear bottom tissue culture plate (Matrix Technologies LLC). 270 nl of certain concentration of compound was then added to each well using ECHO liquid handling systems. 40 ul of IFNγ (R&D, 285-IF-100) at final concentration of 10 ng/ml was then added to column 2-24 with media to column 1 as control. The cells were incubated for 20 hours in 37° C. incubator with 5% CO2.
The compound treatments were stopped by adding trichloroacetic acid (Sigma-Aldrich) to a final concentration at 0.2%. The cell plate was further incubated at 50° C. for 30 minute. The equal volume supernatant (20 uL) and 0.2% (w/v) Ehrlich reagent (4-dimethylaminobenzaldehyde, Sigma-Aldrich) in glacial acetic acid were mixed in a new clear bottom 384-well plate. This plate was then incubated at room temperature for 30 minute. The absorbance at 490 nm was measured on Envision plate reader.
Compound IC50 values were calculated using the counts of no IFNγ control as one hundred percent inhibition, and counts of no compound but DMSO treatment as zero percent inhibition.

T1 sequence (P14902 whole entry): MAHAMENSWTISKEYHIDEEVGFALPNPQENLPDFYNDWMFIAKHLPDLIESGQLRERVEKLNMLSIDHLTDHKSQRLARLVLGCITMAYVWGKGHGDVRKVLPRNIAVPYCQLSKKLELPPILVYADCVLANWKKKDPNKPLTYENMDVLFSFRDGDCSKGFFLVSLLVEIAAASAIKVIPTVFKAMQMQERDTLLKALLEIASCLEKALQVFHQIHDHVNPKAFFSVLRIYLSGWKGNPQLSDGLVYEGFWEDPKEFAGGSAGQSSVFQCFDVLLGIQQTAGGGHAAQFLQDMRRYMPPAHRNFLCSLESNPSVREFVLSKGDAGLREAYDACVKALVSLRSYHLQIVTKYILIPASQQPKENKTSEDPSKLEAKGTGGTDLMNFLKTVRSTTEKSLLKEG

Row | Structure (SMILES) | IC50
1 | CC(C)CN(CC(C)C)c1ccc(-c2ccccc2-c2nnn[nH]2)cc1NC(=O)Cc1cccnc1 [Example 31] | 70 nM
2 | COc1ccc(OC(=O)Nc2cc(-c3ccccc3-c3nnn[nH]3)ccc2N(CC(C)C)CC(C)C)cc1 [Example 50, 4-methoxyphenyl (4-(diisobutylamino)-2′-(1H-tetrazol-5-yl)-[1,1′-biphenyl]-3-yl)carbamate] | 120 nM
3 | CC(C)CN(c1ccc(-c2cc(F)ccc2C(=O)O)cc1NC(=O)Cc1ccccc1F)C1CCCCC1 [Example 6, 4′-(cyclohexyl(isobutyl)amino)-5-fluoro-3′-(2-(2-fluorophenyl)acetamido) biphenyl-2-carboxylic acid] | 50 nM
4 | CC(C)CN(c1ccc(-c2ccccc2-c2nnn[nH]2)cc1NC(=O)Cc1ccccc1C(F)(F)F)C1CCCCC1 [Example 7, N-(4-(cyclohexyl(isobutyl)amino)-2′-(1H-tetrazol-5-yl)biphenyl-3-yl)-2-(2-(trifluoromethyl)phenyl)acetamide] | 130 nM
5 | CC(C)CN(CC(C)C)c1ccc(-c2ccccc2-c2nnn[nH]2)cc1NC(=O)Cc1ccccn1 [Example 30] | 300 nM
6 | CC(C)CN(c1ccc(-c2ccccc2C(=O)O)cc1NC(=O)Cc1ccccc1F)C1CCCCC1 [Example 5, 4′-(cyclohexyl(isobutyl)amino)-3′-(2-(2-fluorophenyl)acetamido) biphenyl-2-carboxylic acid] | 40 nM
7 | CC(C)CN(Cc1ccccc1)c1ccc(-c2ccccc2-c2nnn[nH]2)cc1NC(=O)Cc1ccc(C#N)cc1 [Example 54] | 10 nM
8 | Cc1ccc(CC(=O)Nc2cc(-c3ccccc3-c3nnn[nH]3)ccc2N2C[C@H](C)C[C@H](C)C2)cc1 [Example 21, N-(4-(cis-3,5-Dimethylpiperidin-1-yl)-2′-(1H-tetrazol-5-yl)-[1,1′-biphenyl]-3-yl)-2-(p-tolyl)acetamide] | 520 nM
9 | Cc1ccc(CC(=O)Nc2cc(-c3ccccc3C(=O)O)ccc2N(CC(C)C)CC(C)C)cc1 [Example 4, 4′-(diisobutylamino)-3′-(2-p-tolylacetamido) biphenyl-2-carboxylic acid] | 10 nM
10 | Cc1ccc(CC(=O)Nc2cc(-c3ccccc3-c3nnn[nH]3)ccc2-n2cccn2)cc1 [Example 46, 2-(4-methylphenyl)-N-[2-(1H-pyrazol-1-yl)-5-[2-(1H-1,2,3,4-tetrazol-5-yl)phenyl]phenyl]acetamide] | 230 nM
11 | CC(C)CN(CC(C)C)c1ccc(-c2ccccc2-c2nnn[nH]2)cc1NC(=O)Cc1ccc(Cl)cc1 [Example 17, 2-(4-chlorophenyl)-N-(4-(diisobutylamino)-2′-(1H-tetrazol-5-yl)biphenyl-3-yl)acetamide] | 4.42 nM
12 | CC(C)CN(CC(C)C)c1ccc(-c2ccccc2-c2nnn[nH]2)cc1NC(=O)Cc1ccc(OC(F)(F)F)cc1 [Example 15, N-(4-(diisobutylamino)-2′-(1H-tetrazol-5-yl)biphenyl-3-yl)-2-(4-(trifluoromethoxy)phenyl)acetamide] | 90 nM
13 | CC(C)CN(CC(C)C)c1ccc(-c2ccccc2-c2nnn[nH]2)cc1NC(=O)Cc1cccc(F)c1F [Example 39] | 50 nM
14 | CC(C)CN(CC(C)C)c1ccc(-c2ccccc2-c2nnn[nH]2)cc1NC(=O)Cc1ccc(O)cc1 [Example 28] | 90 nM
15 | CC(C)CN(CC(C)C)c1ccc(-c2ccccc2-c2nnn[nH]2)cc1NC(=O)Cc1ccc2c(c1)OCO2 [Example 14, 2-(benzo[d][1,3]dioxol-5-yl)-N-(4-(diisobutylamino)-2′-(1H-tetrazol-5-yl)biphenyl-3-yl)acetamide] | 20 nM
16 | O=C(Cc1ccccc1C(F)(F)F)Nc1cc(-c2ccccc2-c2nnn[nH]2)ccc1-n1cccn1 [Example 76] | 280 nM
17 | CC(C)CN(CC(C)C)c1ccc(-c2ccccc2-c2nnn[nH]2)cc1NC(=O)Cc1ccc(C#N)cc1 [Example 43] | 5.09 nM
18 | Cc1ccc(CC(=O)Nc2cc(-c3ccccc3-c3nnn[nH]3)ccc2N(CC(C)C)CC(C)C)cc1 [Example 2, N-(4-(Diisobutylamino)-2′-(1H-tetrazol-5-yl)biphenyl-3-yl)-2-p-tolylacetamide] | 5.02 nM
19 | CC(C)CN(CC(C)C)c1ccc(-c2ccccc2-c2nnn[nH]2)cc1NC(=O)Cc1cccc2ccccc12 [Example 24] | 80 nM
20 | CC(C)CN(CC(C)C)c1ccc(-c2ccccc2-c2nnn[nH]2)cc1NC(=O)CC(F)(F)F [Example 35] | 270 nM
21 | CC(C)CN(CC(C)C)c1ccc(-c2ccccc2-c2nnn[nH]2)cc1NC(=O)Cc1cccc(F)c1 [Example 16, N-(4-(diisobutylamino)-2′-(1H-tetrazol-5-yl)biphenyl-3-yl)-2-(3-fluorophenyl)acetamide] | 8.9 nM
22 | Cc1nc(CC(=O)Nc2cc(-c3ccccc3-c3nnn[nH]3)ccc2N(CC(C)C)CC(C)C)cs1 [Example 36] | 400 nM

Row | Structure (SMILES) | IC50
23 | CC(C)CN(CC(C)C)c1ccc(-c2ccccc2-c2nnn[nH]2)cc1NC(=O)CC1CC1 [Example 33] | 500 nM
24 | Cc1ccc(CC(=O)Nc2cc(-c3ccccc3-c3nnn[nH]3)ccc2N2CCC(F)(F)C2)cc1 [Example 75] | 1810 nM
25 | CC(C)CN(Cc1ccccc1)c1ccc(-c2ccccc2-c2nnn[nH]2)cc1NC(=O)Cc1ccccc1C(F)(F)F [Example 3, N,N-(4-(Benzyl(isobutyl)amino)-2′-(1H-tetrazol-5-yl)biphenyl-3-yl)-2-(2-(trifluoromethyl)phenyl)acetamide] | 20 nM
26 | COc1ccc(CC(=O)Nc2cc(-c3ccccc3-c3nnn[nH]3)ccc2N(CC(C)C)CC(C)C)c(C(F)(F)F)c1 [Example 18, N-(4-(diisobutylamino)-2′-(1H-tetrazol-5-yl)biphenyl-3-yl)-2-(4-methoxy-2-(trifluoromethyl)phenyl)acetamide] | 40 nM
27 | CC(C)CN(CC(C)C)c1ccc(-c2ccccc2-c2nnn[nH]2)cc1NC(=O)Cc1cccc(C(F)(F)F)c1 [Example 27] | 160 nM
28 | CC(C)CN(CC(C)C)c1ccc(-c2ccccc2-c2nnn[nH]2)cc1NC(=O)CN1CCOCC1 [Example 38] | 2520 nM
29 | CC(C)CN(CC(C)C)c1ccc(-c2ccccc2-c2nnn[nH]2)cc1NC(=O)Cc1ccc(C(C)C)cc1 [Example 13, N-(4-(diisobutylamino)-2′-(1H-tetrazol-5-yl)biphenyl-3-yl)-2-(4-isopropylphenyl) acetamide] | 1330 nM
30 | CC(C)CN(CC(C)C)c1ccc(-c2ccccc2-c2nnn[nH]2)cc1NC(=O)Cc1ccccc1Cl [Example 25] | 20 nM
31 | Cc1noc(C)c1CC(=O)Nc1cc(-c2ccccc2-c2nnn[nH]2)ccc1N(CC(C)C)CC(C)C [Example 37] | 1280 nM
32 | O=C(Nc1cc(-c2ccccc2-c2nnn[nH]2)ccc1N1CC2CC1CN2Cc1ccccc1)[C@H](O)c1ccccc1 (some centres unmarked) [Example 83] | 8920 nM
33 | CCCCN(c1ccc(-c2ccccc2-c2nnn[nH]2)cc1NC(=O)Cc1ccccc1F)C1CCCCC1 [Example 10, N-(4-(butyl(cyclohexyl)amino)-2′-(1H-tetrazol-5-yl)-[1,1′-biphenyl]-3-yl)-2-(2-fluorophenyl) acetamide] | 7.09 nM
34 | CC(C)(C)CC(=O)Nc1cc(-c2ccccc2-c2nnn[nH]2)ccc1N1CC2CC1CN2Cc1ccccc1 (centres unmarked) [Example 82] | 3610 nM
35 | N#Cc1ccc(CC(=O)Nc2cc(-c3ccccc3-c3nnn[nH]3)ccc2N2CC3CC2CN3Cc2ccccc2)cc1 (centres unmarked) [Example 79] | 2510 nM
36 | CC(C)CN(CC(C)C)c1ccc(-c2ccccc2-c2nnn[nH]2)cc1NC(=O)CC#N [Example 23] | 280 nM
37 | CC(C)CN(c1ccc(-c2ccccc2C(=O)O)cc1NC(=O)Cc1ccccc1C(F)(F)F)C1CCCCC1 [Example 8, 4′-(cyclohexyl(isobutyl)amino)-3′-(2-(2-(trifluoromethyl)phenyl)acetamido)biphenyl-2-carboxylic acid] | 940 nM
38 | CC(C)CN(Cc1ccccc1)c1ccc(-c2ccccc2-c2nnn[nH]2)cc1NC(=O)CC(C)(C)C [Example 47, N-(4-(Benzyl(isobutyl)amino)-2′-(2H-tetrazol-5-yl)biphenyl-3-yl)-3,3-dimethylbutanamide] | 470 nM
39 | CC(C)CN(CC(C)C)c1ccc(-c2ccccc2-c2nnn[nH]2)cc1NC(=O)Oc1ccc2c(c1)OCO2 [Example 51, benzo[d][1,3]dioxol-5-yl (4-(diisobutylamino)-2′-(1H-tetrazol-5-yl)-[1,1′-biphenyl]-3-yl) carbamate] | 3910 nM
40 | CC(C)CN(CC(C)C)c1ccc(-c2ccccc2-c2nnn[nH]2)cc1NC(=O)Cc1cncc(Br)c1 [Example 44] | 80 nM
41 | CC(C)(C)CC(=O)Nc1cc(-c2ccccc2-c2nnn[nH]2)ccc1-n1cccn1 [Example 78] | 4440 nM
42 | CC(C)CN(CC(C)C)c1ccc(-c2ccccc2-c2nnn[nH]2)cc1NC(=O)Cc1ccccc1C(F)(F)F [Example 26] | 50 nM
43 | CC(C)CN(Cc1ccccc1)c1ccc(-c2ccccc2-c2nnn[nH]2)cc1NC(=O)[C@H](O)c1ccccc1 [Example 48, (R)—N-(4-(Benzyl(isobutyl)amino)-2′-(1H-tetrazol-5-yl)biphenyl-3-yl)-2-hydroxy-2-phenylacetamide] | 1610 nM
44 | CC(C)CN(CC(C)C)c1ccc(-c2ccccc2-c2nnn[nH]2)cc1NC(=O)COc1cccnc1 [Example 42] | 500 nM
